What all share (type): in vivo
For experiment [1], the system named is Soja. In words: Post-emergence test. The settings on record: % damage vs untreated control after three weeks. The source says:
(§1) Zur Herstellung einer zweckmäßigen Wirkstoffzubereitung vermischt man 1 Gewichtsteil Wirkstoff mit der angegebenen Menge Lösungsmittel, gibt die angegebene Menge Emulgator zu und verdünnt das Konzentrat mit Wasser auf die gewünschte Konzentration.
(§2) Mit der Wirkstoffzubereitung spritzt man Testpflanzen, welche eine Höhe von 5 - 15 cm haben so, daß die jeweils gewünschten Wirkstoffmengen pro Flächeneinheit ausgebracht werden. Die Konzentration der Spritzbrühe wird so gewählt, daß in 2000 1 Wasser/ha die jeweils gewünschten Wirkstoffmengen ausgebracht werden. Nach drei Wochen wird der Schädigungsgrad der Pflanzen bonitiert in % Schädigung im Vergleich zur Entwicklung der unbehandelten Kontrolle.

Experiment [2] concerns Mais. As to the kind of experiment: Post-emergence test. The settings on record: % damage vs untreated control after three weeks.
Source text: as §1, §2

In experiment [3] the test system is Dicotyledoneae. As to the kind of experiment: Post-emergence test. The settings on record: % damage vs untreated control after three weeks, average effect on several dicots.
Source text: as §1, §2

Experiment [4] has as its system Monocotyledoneae. In words: Post-emergence test. The settings on record: % damage vs untreated control after three weeks, average effect on several monocots.
Source text: as §1, §2

Experiment [5] relates to Rüben. As to the kind of experiment: Post-emergence test. The settings on record: % damage vs untreated control after three weeks.
Source text: as §1, §2

Experiment [6] concerns Testpflanzen. As to the kind of experiment: Post-emergence test, overall comparison. The settings on record: compared with the corresponding racemic compounds (A) and (B).
Source text: as §1, §2

For experiment [7], the system named is Testpflanzen. As to the kind of experiment: Pre-emergence test, overall comparison. The settings on record: compared with the corresponding racemic compounds (A) and (B).
Source text: as §1
(§3) Samen der Testpflanzen werden in normalen Boden ausgesät und nach 24 Stunden mit der Wirkstoffzubereitung begossen. Dabei hält man die Wassermenge pro Flächeneinheit zweckmäßigerweise konstant. Die Wirkstoffkonzentration in der Zubereitung spielt keine Rolle, entscheidend ist nur die Aufwandmenge des Wirkstoffs pro Flächeneinheit. Nach drei Wochen wird der Schädigungsgrad der Pflanzen bonitiert in % Schädigung im Vergleich zur Entwicklung der unbehandelten Kontrolle.

Experiment [8] concerns Soja. In words: Pre-emergence test. The settings on record: % damage vs untreated control after three weeks.
Source text: as §1, §3

The subject of experiment [9] is Mais. In words: Pre-emergence test. The settings on record: % damage vs untreated control after three weeks.
Source text: as §1, §3

Experiment [10] relates to Dicotyledoneae. As to the kind of experiment: Pre-emergence test. The settings on record: % damage vs untreated control after three weeks, average effect on several dicots.
Source text: as §1, §3

The test system of experiment [11] is Monocotyledoneae. As to the kind of experiment: Pre-emergence test. The settings on record: % damage vs untreated control after three weeks, average effect on several monocots.
Source text: as §1, §3

The subject of experiment [12] is Rüben. As to the kind of experiment: Pre-emergence test. The settings on record: % damage vs untreated control after three weeks.
Source text: as §1, §3

Consider `CCOC(=O)[C@@H](C)OC(=O)c1cc(Oc2c(Cl)cc(C(F)(F)F)cc2Cl)ccc1[N+](=O)[O-]` [(1), 5-(2,6-Dichlor-4-trifluormethyl-phenoxy)-2-nitro-benzoesäure-(1-ethoxycarbonylethyl)-esters], for which the “Wirkung (in %) Soja” value in experiment [1] (0,6 kg/ha) is recorded as 100%; in experiment [8] (0,6 kg/ha) it was 10%. Besides, the “Wirkung (in %) Mais” value in experiment [2] (0,6 kg/ha) was determined as 80%; in experiment [9] (0,6 kg/ha), 10%. Further, the figures for the “Wirkung (in %) Dicotyledoneae” value in experiment [3] (0,6 kg/ha) and in experiment [10] (0,6 kg/ha) were 99,3% and 92,7%, respectively. In addition, the “Wirkung (in %) Monocotyledoneae” value in experiment [4] (0,6 kg/ha) was 81,1%; in experiment [11] (0,6 kg/ha), 79,3%. The “Wirkung (in %) Rüben” value in [5] (0,6 kg/ha) and in experiment [12] (0,6 kg/ha) was 100% throughout. For the same molecule, the “herbizide Wirksamkeit” value in [6] and in [7] was “bessere herbizide Wirksamkeit” each time.
Regarding `CCOC(=O)[C@@H](C)OC(=O)c1cc(Oc2ccc(C(F)(F)F)cc2Cl)ccc1[N+](=O)[O-]` [(2), 5-(2-Chlor-4-trifluormethyl-phenoxy)-2-nitro-benzoesäure-(1-ethoxycarbonyl-ethyl)-esters], the results for the “Wirkung (in %) Soja” value in experiment [1] (0,75 kg/ha) and in [8] (0,75 kg/ha) were 99% and 0%, respectively. The “Wirkung (in %) Mais” value is given as 99% in [2] (0,75 kg/ha) and 0% in [9] (0,75 kg/ha). Also, the results for the “Wirkung (in %) Dicotyledoneae” value in experiment [3] (0,75 kg/ha) and in experiment [10] (0,75 kg/ha) were 99,3% and 74,3%, respectively. The “Wirkung (in %) Monocotyledoneae” value in [4] (0,75 kg/ha) is 86,3%; in [11] (0,75 kg/ha), 80,7%. Moreover, the “Wirkung (in %) Rüben” value in [5] (0,75 kg/ha) turned out to be 100%; in [12] (0,75 kg/ha), 99%. In addition, the “herbizide Wirksamkeit” value in experiment [6] and in [7] was “bessere herbizide Wirksamkeit” throughout.
